The values that follow come from ChEMBL document CHEMBL2146368, “Protective effects of caffeoylquinic acids on the aggregation and neurotoxicity of the 42-residue amyloid β-protein” (Bioorg Med Chem, 2012).

For experiment [1], the target named is T1, Amyloid-beta precursor protein (Homo sapiens, UniProt P05067). Kind of experiment: Inhibition of human amyloid beta (1 to 42) aggregation at 1 to 100 uM after 24 hrs by thioflavin-T fluorescence assay.
The target in experiment [2] is T1, Amyloid-beta precursor protein. The experiment is described as follows: Inhibition of human amyloid beta (1 to 42) aggregation after 24 hrs by thioflavin-T fluorescence assay.
Experiment [3] shares this target. Kind of experiment: Inhibition of human amyloid beta (1 to 42) fibril formation at 50 uM after 24 hrs by transmission electron microscopic analysis.
For experiment [4] the target is unchanged. The experiment is described as follows: Inhibition of human amyloid beta (1 to 42) beta-sheet formation at 50 uM after 12 to 24 hrs by CD-spectra analysis.
Experiment [5] has the same target. Kind of experiment: Inhibition of human amyloid beta (1 to 42) aggregates by measuring monomer concentration at 20 uM after 48 hrs by thermodynamic stability assay.
Experiment [6] has the same target. The experiment is described as follows: Inhibition of amyloid beta (1 to 42)-mediated neurotoxicity in human SH-SY5Y cells assessed as increase in cell viability at 20 uM after 48 hrs by MTT assay. Format: cell-based.
For experiment [7] the target is unchanged. Kind of experiment: Inhibition of amyloid beta (1 to 42)-mediated neurotoxicity in human SH-SY5Y cells assessed as increase in cell viability after 48 hrs by MTT assay. Format: cell-based. Background: Tetrazolium assays rely on reduction of a dye to a coloured formazan, in cell work by metabolically active cells.
Experiment [8] has the same target. Kind of experiment: Inhibition of human amyloid beta (1 to 42) oligomerization at 90 uM after 24 to 144 hrs by Dot blot analysis.
The target is the same in experiment [9]. Kind of experiment: Inhibition of human amyloid beta (1 to 42) oligomerization assessed as decrease in trimer formation at 50 uM after 2 hrs by Western blot analysis. Background: In western blotting, separated proteins are transferred to a membrane and probed.
Experiment [10] has the same target. Kind of experiment: Inhibition of human amyloid beta (1 to 42) oligomerization assessed as decrease in trimer formation at 25 uM after 2 hrs by Western blot analysis.

pIC50: −log10 of the molar value. The source made the active and inactive calls. The rule behind the calls is not given here. Where only a bound is given, the exact number is not on record here.

T1 sequence (P05067 whole entry): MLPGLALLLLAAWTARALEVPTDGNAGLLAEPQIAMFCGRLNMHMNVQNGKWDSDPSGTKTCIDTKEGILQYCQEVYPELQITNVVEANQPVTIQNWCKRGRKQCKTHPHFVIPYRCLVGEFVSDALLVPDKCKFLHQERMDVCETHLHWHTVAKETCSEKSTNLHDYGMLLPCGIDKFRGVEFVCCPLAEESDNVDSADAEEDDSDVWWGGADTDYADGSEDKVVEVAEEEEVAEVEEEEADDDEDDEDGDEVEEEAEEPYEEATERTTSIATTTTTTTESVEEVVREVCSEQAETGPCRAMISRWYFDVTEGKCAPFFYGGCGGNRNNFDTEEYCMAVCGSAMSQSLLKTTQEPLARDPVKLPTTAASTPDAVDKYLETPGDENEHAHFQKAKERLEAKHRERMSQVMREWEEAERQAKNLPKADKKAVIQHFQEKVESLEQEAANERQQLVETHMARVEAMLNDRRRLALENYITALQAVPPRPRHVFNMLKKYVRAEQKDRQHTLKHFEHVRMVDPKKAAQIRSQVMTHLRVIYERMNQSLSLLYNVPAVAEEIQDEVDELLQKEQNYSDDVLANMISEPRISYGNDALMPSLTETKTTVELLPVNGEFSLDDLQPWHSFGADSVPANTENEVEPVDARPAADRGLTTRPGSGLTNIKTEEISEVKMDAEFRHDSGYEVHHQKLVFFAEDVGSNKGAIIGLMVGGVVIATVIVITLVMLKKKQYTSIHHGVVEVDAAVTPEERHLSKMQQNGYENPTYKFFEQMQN

On to `O=C(/C=C/c1ccc(O)c(O)c1)O[C@@H]1C[C@](O)(C(=O)O)C[C@@H](OC(=O)/C=C/c2ccc(O)c(O)c2)[C@H]1O`, for which the inhibition result in experiment [1] is “Active”. Further, the pIC50 in experiment [2] was 4.79.
Take `O=C(/C=C/c1ccc(O)c(O)c1)O[C@@H]1C[C@](O)(C(=O)O)C[C@@H](O)[C@H]1O` [CHLOROGENIC ACID]: in experiment [2], the pIC50 was 4.03 and the inhibition result was “Dose-dependent effect”.
Consider `COC(=O)[C@]1(O)C[C@@H](OC(=O)/C=C/c2ccc(O)c(O)c2)[C@@H](OC(=O)/C=C/c2ccc(O)c(O)c2)[C@H](OC(=O)/C=C/c2ccc(O)c(O)c2)C1`, for which the inhibition result in [1] is “Active”. This molecule had a pIC50 in [2] of 5.52.
With `O=C(O)/C=C/c1ccc(O)c(O)c1` [CAFFEIC ACID], in [2], the pIC50 is 4.48 and the inhibition entry is “Dose-dependent effect”.
Take `O=C(/C=C/c1ccc(O)c(O)c1)O[C@H]1[C@H](O)C[C@](OC(=O)/C=C/c2ccc(O)c(O)c2)(C(=O)O)C[C@H]1OC(=O)/C=C/c1ccc(O)c(O)c1`: the inhibition entry in [1] is “Active”. Also, in experiment [2], the pIC50 was 5.66.
Take `COC(=O)[C@]1(O)C[C@@H](O)[C@@H](O)[C@H](OC(=O)/C=C/c2ccc(O)c(O)c2)C1` [CHLOROGENIC ACID METHYL ESTER]: the inhibition result in experiment [1] was “inactive”. The pIC50 in [2] was below 4.00.
Regarding `O=C(/C=C/c1ccc(O)c(O)c1)O[C@H]1[C@H](O)C[C@](O)(C(=O)O)C[C@H]1OC(=O)/C=C/c1ccc(O)c(O)c1`, the inhibition result in experiment [3], in experiment [4] and in experiment [1] was “Active” in each case. Moreover, the Activity came to 10 µM in experiment [5] and 78.9% in experiment [6]. For the same molecule, the pIC50 in experiment [2] was 7.00. Moreover, the inhibition entry in experiment [7] is “Dose-dependent effect”.
Consider `O=C(/C=C/c1ccc(O)c(O)c1)O[C@@H]1[C@H](O)C[C@@](O)(C(=O)O)C[C@H]1OC(=O)/C=C/c1ccc(O)c(O)c1`, for which the inhibition result in [1] was “Active”. This molecule also gave a pIC50 in [2] of 5.33.
As for `O=C(/C=C/c1ccc(O)c(O)c1)O[C@@H]1C[C@](O)(C(=O)O)C[C@@H](OC(=O)/C=C/c2ccc(O)c(O)c2)[C@H]1OC(=O)/C=C/c1ccc(O)c(O)c1`, the inhibition result in experiment [3], in experiment [8], in experiment [4] and in [1] was “Active” each time. The inhibition in experiment [9] was 63.1%; in [7], “Dose-dependent effect”; in experiment [10], 87.6%. Moreover, the figures for the Activity in [5] and in experiment [6] were 27 µM and 96.1%, respectively. The molecule further showed a pIC50 in experiment [2] of 6.52.
`O=C(O)[C@]1(O)C[C@@H](O)[C@@H](O)[C@H](O)C1` (relative stereo) [QUINIC ACID]: the inhibition entry in [1] was “inactive”. Further, the inhibition in experiment [9] is 100%. Moreover, the Activity in experiment [5] came to 1.2 µM. In addition, the pIC50 in [2] was below 4.00.
Consider `O=C(O)/C=C/c1ccccc1` [CINNAMIC ACID], for which the inhibition result in experiment [1] was “inactive”. The pIC50 in experiment [2] is below 4.00.

What is called inhibition is the drop in the measured response relative to a control, in per cent. Usually pIC50 stands for −log10 of the IC50, conventionally taken in molar units. A high value points to a low IC50.
